Here are results for 34 molecules from patent publication US9597314B2, “Beta-lactamylalkanoic acids for treating premenstrual disorders” (AZEVAN PHARMACEUTICALS, INC., priority 2005, dated 2017).

The experiment concerns the target V1a (Homo sapiens, UniProt P37288). Briefly: Human vasopression V1a receptor binding assay. As to conditions: hV1a cell line (CHO); for IC50: 1 nM 3H-AVP, Table 17, read-out: V1a Binding Affinity (IC50 (nM)); for Ki: Table 18. The arrangement: host or cells: CHO cells (hV1a cell line), whole adherent cells. How it is done:
Human vasopression V1a receptor binding assay. A cell line expressing the human V1a receptor in CHO cells (henceforth referred to as the hV1a cell line) was obtained from Dr. Michael Brownstein, NIMH, Bethesda, Md., USA. The hV1a cDNA sequence is described by Thibonnier et al., Journal of Biological Chemistry, 269, 3304-3310 (1994), and the expression method was the same as described by Morel et al. (1992). The hV1a cell line was grown in alpha-MEM with 10% fetal bovine serum and 250 ug/ml G418 (Gibco, Grand Island, N.Y., USA). For competitive binding assay, hV1a cells were plated into 6-well culture plate at 1:10 dilution from a confluency flask, and maintained in culture for at least two days. Culture medium was then removed, cells were washed with 2 ml binding buffer (25 mM Hepes, 0.25% BSA, 1×DMEM, PH=7.0). To each well, 990 μl binding buffer containing 1 nM 3H-AVP was added, and followed by 10 μl series diluted Example compounds dissolved in DMSO. […] 100 nM cold AVP (Sigma) was used to assess non-specific binding. Cells were incubated for 45 minutes at 37° C., assay mixture was removed and each well was washed three times with PBS (pH=7.4). 1 ml 2% SDS was added per well and plates were let sit for 30 minutes. The whole content in a well was transferred to a scintillation vial. Each well was rinsed with 0.5 ml PBS which was then added to the corresponding vial. Scintillation fluid (Ecoscint, National Diagnostics, Atlanta, Ga.) was then added at 3 ml per vial. Samples were counted in a liquid scintillation counter (Beckman LS3801). IC50 values were calculated by Prism Curve fitting software.
All of the alkanedioic esters and amides exemplified in the foregoing examples dissolved in DMSO were tested in this assay. Binding curves were generated according to methods described by Thibonnier et al. (1994). [^3H]-AVP was added to the hV1a cell cultures followed by 10 fold dilutions of each test compound.

V1a, sequence (P37288 whole entry): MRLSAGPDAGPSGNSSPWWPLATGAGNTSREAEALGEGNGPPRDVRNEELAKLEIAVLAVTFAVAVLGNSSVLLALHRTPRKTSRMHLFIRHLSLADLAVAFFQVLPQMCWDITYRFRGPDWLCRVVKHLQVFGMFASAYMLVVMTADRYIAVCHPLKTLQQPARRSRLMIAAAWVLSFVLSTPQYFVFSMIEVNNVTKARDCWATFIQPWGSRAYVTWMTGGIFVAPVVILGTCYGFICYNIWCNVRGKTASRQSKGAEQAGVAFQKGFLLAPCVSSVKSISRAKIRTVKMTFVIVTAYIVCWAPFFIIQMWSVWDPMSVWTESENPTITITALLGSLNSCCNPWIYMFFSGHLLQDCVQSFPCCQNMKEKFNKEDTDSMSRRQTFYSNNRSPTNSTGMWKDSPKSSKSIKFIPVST

Consider `O=C([C@@H](COCc1ccccc1)N1C(=O)[C@@H](N2C(=O)OC[C@@H]2c2ccccc2)[C@H]1/C=C/c1ccccc1)N1CCC(N2CCCCC2)CC1` [Example 232], for which the 50% inhibitory concentration (IC50) is 1.37 nM and the Ki stood at 0.84 nM.
As for `O=C(C[C@@H](C(=O)NCc1cccc(C(F)(F)F)c1)N1C(=O)[C@@H](N2C(=O)OC[C@@H]2c2ccccc2)[C@H]1/C=C/c1ccccc1)NC1CCN(Cc2ccccc2)CC1` [Example 63], the inhibition constant (Ki) came out at 1.13 nM.
`O=C(CC[C@@H](C(=O)N[C@@H]1CCCc2ccccc21)N1C(=O)[C@@H](N2C(=O)OC[C@@H]2c2ccccc2)[C@H]1/C=C/c1ccccc1)NCCN1CCCCC1` [Example 221X]: the IC50 came out at 11.6 nM and the affinity, expressed as Ki, was 7.2 nM.
Consider `O=C(N[C@@H]1CCCc2ccccc21)[C@H](CCC(=O)N1CCC[C@H]1CN1CCCC1)N1C(=O)[C@@H](N2C(=O)OC[C@@H]2c2ccccc2)[C@H]1/C=C/c1ccccc1` [Example 221Y], for which the half-inhibitory concentration (IC50) was determined as 7.6 nM and the affinity corresponds to a Ki of 4.7 nM.
Take `O=C(NCc1cccc(F)c1)[C@H](CCC(=O)N1CCN(C2CCCCC2)CC1)N1C(=O)[C@@H](N2C(=O)OC[C@@H]2c2ccccc2)[C@H]1/C=C/c1ccccc1` [Example 184]: the IC50 was less than 10 nM.
Same read-out and setting: then `CCN1CCC[C@H]1CNC(=O)CC[C@@H](C(=O)N[C@@H]1CCCc2ccccc21)N1C(=O)[C@@H](N2C(=O)OC[C@@H]2c2ccccc2)[C@H]1/C=C/c1ccccc1` [Example 221AI], with roughly 50 nM.
`O=C(NCc1cccc(C(F)(F)F)c1)C(C(=O)NC1CCN(Cc2ccccc2)CC1)N1C(=O)[C@@H](N2C(=O)OC[C@@H]2c2ccccc2)[C@H]1/C=C/c1ccccc1` (mixture of isomers) [Example 39] returned a Ki of 13.3 nM.
Turning to `O=C(NC1(c2ccccc2)CC1)[C@H](CCC(=O)N1CCN(C2CCCCC2)CC1)N1C(=O)[C@@H](N2C(=O)OC[C@@H]2c2ccccc2)[C@H]1/C=C/c1ccccc1` [Example 207], the half-inhibitory concentration (IC50) was 4.48 nM and the inhibition constant (Ki) worked out at 2.74 nM.
In the same order, the values of `O=C(NCc1cccc(C(F)(F)F)c1)[C@@H](CC(=O)N1CCC(CCN2CCCCC2)CC1)N1C(=O)[C@@H](N2C(=O)OC[C@@H]2c2ccccc2)[C@H]1/C=C/c1ccccc1` [Example 134A] are 12.9 nM and 7.9 nM.
In the same order, the values of `O=C(NC1CCCc2ccccc21)C(CCC(=O)N1CCN(C2CCCCC2)CC1)N1C(=O)C(N2C(=O)OCC2c2ccccc2)C1C=Cc1ccccc1` (single isomer, unassigned) [Example 215] are 0.61 nM and 0.38 nM.
On to `O=C(NCc1cc(F)cc(F)c1)[C@H](CCC(=O)N1CCN(C2CCCCC2)CC1)N1C(=O)[C@@H](N2C(=O)OC[C@@H]2c2ccccc2)[C@H]1/C=C/c1ccccc1` [Example 185], for which the half-inhibitory concentration (IC50) was 1.27 nM.
Molecule `O=C(NCc1cccc(C(F)(F)F)c1)[C@@H](CCC(=O)N1CCN(CCc2ccccc2)CC1)N1C(=O)[C@@H](N2C(=O)OC[C@@H]2c2ccccc2)[C@H]1/C=C/c1ccccc1` [Example 136] came in with an inhibition constant Ki of 33 nM.
Regarding `O=C(NCc1cccc(C(F)(F)F)c1)[C@H](CCC(=O)N1CCN(C2CCCCC2)CC1)N1C(=O)[C@@H](N2C(=O)OC[C@@H]2c2ccccc2)[C@H]1/C(Cl)=C/c1ccccc1` [Example 226], the IC50 came to 0.49 nM and the inhibition constant Ki was determined as 0.3 nM.
Turning to `O=C(NCc1cccc(C(F)(F)F)c1)[C@H](CC(=O)N1CCCN(Cc2ccccc2)CC1)N1C(=O)[C@@H](N2C(=O)OC[C@@H]2c2ccccc2)[C@H]1/C=C/c1ccccc1` [Example 82], the inhibition constant Ki was 5.12 nM.
Turning to `CC(C)(NC(=O)[C@H](CCC(=O)N1CCN(C2CCCCC2)CC1)N1C(=O)[C@@H](N2C(=O)OC[C@@H]2c2ccccc2)[C@H]1/C=C/c1ccccc1)c1ccccc1` [Example 204], the IC50 turned out to be 6 nM and the Ki was 3.7 nM.
Regarding `CN(Cc1cccc(Cl)c1)C(=O)[C@H](CCC(=O)N1CCN(C2CCCCC2)CC1)N1C(=O)[C@@H](N2C(=O)OC[C@@H]2c2ccccc2)[C@H]1/C=C/c1ccccc1` [Example 221C], the IC50 worked out at 3 nM and the affinity corresponds to a Ki of 1.84 nM.
In the case of `O=C(N[C@H]1CCc2ccccc21)[C@H](CCC(=O)N1CCN(C2CCCCC2)CC1)N1C(=O)[C@@H](N2C(=O)OC[C@@H]2c2ccccc2)[C@H]1/C=C/c1ccccc1` [Example 221R], the IC50 came to 5.13 nM and the Ki came out at 3.14 nM.
Take `CN(Cc1ccccc1)C(=O)[C@H](CCC(=O)N1CCN(C2CCCCC2)CC1)N1C(=O)[C@@H](N2C(=O)OC[C@@H]2c2ccccc2)[C@H]1/C=C/c1ccccc1` [Example 196]: the IC50 is less than 100 nM.
For the molecule `COc1cccc([C@H](C)NC(=O)[C@H](CCC(=O)N2CCN(C3CCCCC3)CC2)N2C(=O)[C@@H](N3C(=O)OC[C@@H]3c3ccccc3)[C@H]2/C=C/c2ccccc2)c1` [Example 203], the IC50 came to 2.46 nM and the Ki came to 1.5 nM.
In the same order, the values of `CC(C)(NC(=O)[C@@H](CC(=O)N1CCC(N2CCCCC2)CC1)N1C(=O)[C@@H](N2C(=O)OC[C@@H]2c2ccccc2)[C@H]1/C=C/c1ccccc1)c1ccccc1` [Example 134J] are 5.29 nM and 3.25 nM.
For `O=C(NCc1cc(Cl)cc(Cl)c1)[C@H](CCC(=O)N1CCN(C2CCCCC2)CC1)N1C(=O)[C@@H](N2C(=O)OC[C@@H]2c2ccccc2)[C@H]1/C=C/c1ccccc1` [Example 174], in that order: 1.46 nM and 0.89 nM.
In the same order, the values of “(2S)-[(4-cyclohexylpiperazinyl)carbonylethyl]-2-[3(S)-(4(S)-phenyloxazolidin-2-on-3-yl)-4(R)-(2-phenyleth-1-yl)azetidin-2-on-1-yl]acetic acid N—[(R)-1,2,3,4-tetrahydronaphth-1-yl]amide [Example 236A]” are 9 nM and 5.5 nM.
Consider `O=C(CC[C@@H](C(=O)N[C@@H]1CCCc2ccccc21)N1C(=O)[C@@H](N2C(=O)OC[C@@H]2c2ccccc2)[C@H]1/C=C/c1ccccc1)Nc1cnc2ccccc2c1` [Example 221AL], for which the half-maximal inhibitory concentration (IC50) is roughly 100 nM.
Same read-out and setting: then `O=C(NCc1ccc(F)c(C(F)(F)F)c1)[C@H](CCC(=O)N1CCN(C2CCCCC2)CC1)N1C(=O)[C@@H](N2C(=O)OC[C@@H]2c2ccccc2)[C@H]1/C=C/c1ccccc1` [Example 178], with less than 50 nM.
The molecule `O=C(NCc1cccc(C(F)(F)F)c1)[C@H](CCC(=O)N1CCN(CC2CCCCC2)CC1)N1C(=O)[C@@H](N2C(=O)OC[C@@H]2c2ccccc2)[C@H]1/C=C/c1ccccc1` [Example 120] displayed a Ki of 0.46 nM.
`CN(Cc1cccc(C(F)(F)F)c1)C(=O)[C@H](CCC(=O)N1CCN(C2CCCCC2)CC1)N1C(=O)[C@@H](N2C(=O)OC[C@@H]2c2ccccc2)[C@H]1/C=C/c1ccccc1` [Example 205]: the half-maximal inhibitory concentration (IC50) is 0.34 nM and the affinity corresponds to a Ki of 0.21 nM.
With `CCCCN1CCN(C(=O)CC[C@@H](C(=O)NCc2cccc(C(F)(F)F)c2)N2C(=O)[C@@H](N3C(=O)OC[C@@H]3c3ccccc3)[C@H]2/C=C/c2ccccc2)CC1` [Example 221AB], the concentration for half-maximal inhibition (IC50) is less than 10 nM.
Still for that read-out and setting: in the case of `Cc1ccc(CNC(=O)[C@H](CCC(=O)N2CCN(C3CCCCC3)CC2)N2C(=O)[C@@H](N3C(=O)OC[C@@H]3c3ccccc3)[C@H]2/C=C/c2ccccc2)cc1` [Example 194] it was less than 100 nM.
Regarding `O=C(NC(CCO)c1ccccc1)[C@H](CCC(=O)N1CCN(C2CCCCC2)CC1)N1C(=O)[C@@H](N2C(=O)OC[C@@H]2c2ccccc2)[C@H]1/C=C/c1ccccc1` (stereo partly shown) [Example 221Q], the IC50 amounted to 18.1 nM and the inhibition constant (Ki) was 11.1 nM.
With `CC(C)N1CCN(C(=O)CC[C@H](C(=O)NCc2cccc(C(F)(F)F)c2)N2C(=O)[C@@H](N3C(=O)OC[C@@H]3c3ccccc3)[C@H]2/C=C/c2ccccc2)CC1` [Example 138], the Ki came out at 13 nM.
As for `O=C(NC(c1ccccc1)c1ccccc1)[C@H](CCC(=O)N1CCN(C2CCCCC2)CC1)N1C(=O)[C@@H](N2C(=O)OC[C@@H]2c2ccccc2)[C@H]1/C=C/c1ccccc1` [Example 221K], the IC50 is roughly 5 nM.
Consider `C[C@H](NC(=O)[C@H](CCC(=O)N1CCN(C2CCCCC2)CC1)N1C(=O)[C@@H](N2C(=O)OC[C@@H]2c2ccccc2)[C@H]1/C=C/c1ccccc1)c1ccccc1` [Example 206], for which the IC50 came out at 1.58 nM and the Ki came to 0.97 nM.
In the same order, the values of `Cc1cccc(CNC(=O)[C@H](CCC(=O)N2CCN(C3CCCCC3)CC2)N2C(=O)[C@@H](N3C(=O)OC[C@@H]3c3ccccc3)[C@H]2/C=C/c2ccccc2)c1` [Example 193] are 1.17 nM and 0.72 nM.
On to `O=C(CC[C@@H](C(=O)NCc1cccc(C(F)(F)F)c1)N1C(=O)C(N2C(=O)OC[C@@H]2c2ccccc2)C1/C(F)=C/c1ccccc1)NC1CN2CCC1CC2` (stereo partly shown) [Example 230F], for which the 50% inhibitory concentration (IC50) was roughly 100 nM.
